{"source": "ChEMBL document CHEMBL5360549", "about": "“Recent advances in the development of methyltransferase (MTase) inhibitors against (re)emerging arboviruses diseases dengue and Zika” (Eur J Med Chem, 2023)", "key": {"[1]": {"assay": "Inhibition of Dengue virus 3 nucleoside-2'O-methyltransferase assessed as inhibition constant", "parameters": "species or system dengue virus type 3"}, "[2]": {"molecular_target": "T1, mRNA cap guanine-N(7) methyltransferase (Homo sapiens, UniProt O43148)", "T1 sequence (O43148 whole entry)": "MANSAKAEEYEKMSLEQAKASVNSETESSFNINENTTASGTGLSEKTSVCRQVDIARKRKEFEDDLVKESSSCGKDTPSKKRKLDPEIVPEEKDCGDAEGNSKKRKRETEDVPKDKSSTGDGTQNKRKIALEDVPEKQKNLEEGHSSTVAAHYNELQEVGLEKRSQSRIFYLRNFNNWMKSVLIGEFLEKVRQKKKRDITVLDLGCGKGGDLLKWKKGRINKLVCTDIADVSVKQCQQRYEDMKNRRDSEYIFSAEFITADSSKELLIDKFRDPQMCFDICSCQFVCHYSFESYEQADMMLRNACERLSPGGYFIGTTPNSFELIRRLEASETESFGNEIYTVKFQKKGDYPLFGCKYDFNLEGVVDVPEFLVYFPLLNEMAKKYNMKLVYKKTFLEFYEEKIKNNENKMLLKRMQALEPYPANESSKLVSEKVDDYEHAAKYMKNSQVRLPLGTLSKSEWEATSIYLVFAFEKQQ", "assay": "Inhibition of human RNMT assessed as inhibition constant"}, "[3]": {"assay": "Inhibition of Dengue virus 3 guanine-N7 methyltransferase assessed as inhibition constant", "parameters": "species or system dengue virus type 3"}, "dengue virus type 4": {"system": "dengue virus type 4", "assay": "Antiviral activity against Dengue virus 4 infected in asian tiger mosquito C6/36 cells assessed as reduction in virus replication by methyleneblue staining based analysis", "format": "functional, organism-based"}, "dengue virus type 2 [4]": {"system": "dengue virus type 2", "assay": "Antiviral activity against Dengue virus 2 infected in asian tiger mosquito C6/36 cells assessed as reduction in virus replication by methyleneblue staining based analysis", "format": "functional, organism-based"}, "dengue virus type 1": {"system": "dengue virus type 1", "assay": "Antiviral activity against Dengue virus 1 infected in asian tiger mosquito C6/36 cells assessed as reduction in virus replication by methyleneblue staining based analysis", "format": "functional, organism-based"}, "[5]": {"assay": "Cytotoxicity against hamster BHK-21 cells assessed as reduction in cell growth measured after 24 hrs by MTT assay", "format": "toxicity, cell-based, Mesocricetus auratus"}, "[6]": {"assay": "Cytotoxicity against human Huh-7 cells assessed as reduction in cell growth measured after 24 hrs by MTT assay", "format": "toxicity, cell-based"}, "[7]": {"assay": "Cytotoxicity against human A549 cells assessed as reduction in cell growth measured after 24 hrs by MTT assay", "format": "toxicity, cell-based"}, "[8]": {"assay": "Cytotoxicity against HEK293T cells assessed as reduction in cell growth measured after 24 hrs by MTT assay", "format": "toxicity, cell-based, HEK-293T", "conditions": "human"}, "[9]": {"assay": "Inhibition of Zika virus NS5-methyltransferase using GpppAC4 and [3H]AdoMet as substrate incubated for 30 mins by liquid scintillation counter analysis"}, "Zika virus [10]": {"system": "Zika virus", "assay": "Inhibition of Zika virus NS5-methyltransferase at 50 uM using GpppAC4 and [3H]AdoMet as substrate incubated for 30 mins by liquid scintillation counter analysis relative to control"}, "Zika virus [11]": {"system": "Zika virus", "assay": "Antiviral activity against Zika virus infected in African green monkey Vero cells assessed as reduction in viral plaques by plaque reduction assay", "format": "functional, organism-based"}, "[12]": {"molecular_target": "T1, mRNA cap guanine-N(7) methyltransferase", "assay": "Inhibition of human RNMT using GpppAC4 and [3H]AdoMet as substrate incubated for 30 mins by liquid scintillation counter analysis"}, "[13]": {"assay": "Inhibition of Dengue virus NS5-methyltransferase using GpppAC4 and [3H]AdoMet as substrate incubated for 30 mins by liquid scintillation counter analysis"}, "dengue virus type 2 [14]": {"system": "dengue virus type 2", "assay": "Inhibition of Dengue virus 2 NS5-methyltransferase at 50 uM by HTRF assay relative to control"}, "[15]": {"molecular_target": "T1, mRNA cap guanine-N(7) methyltransferase", "assay": "Inhibition of human RNMT at 50 uM using polyU as substrate incubated for 10 mins in presence of [3H] ATP and ATP by liquid scintillation counter analysis relative to control"}, "[16]": {"assay": "Binding affinity to Zika virus NS5-methyltransferase assessed as dissociation constant by isothermal titration microcalorimetry method"}, "Zika virus [17]": {"system": "Zika virus", "assay": "Antiviral activity against Zika virus", "format": "functional, organism-based"}}}
{"compound": "Nc1ncnc2c1ncn2[C@@H]1O[C@H](CSCC[C@H](N)C(=O)O)[C@@H](O)[C@H]1O", "note": "[S-ADENOSYLHOMOCYSTEINE]", "values": [{"measurement": "Ki", "setting": "[1]", "value": 570, "unit": "nM"}, {"measurement": "Ki", "setting": "[2]", "value": "> 50000", "unit": "nM"}, {"measurement": "Ki", "setting": "[3]", "value": 3190, "unit": "nM"}]}
{"compound": "CCC(/C(C)=C/c1cc(OC)c(OC)cc1OC)c1cc(OC)c(OC)cc1OC", "note": "(stereo unspecified)", "values": [{"measurement": "EC50", "setting": "dengue virus type 4", "value": 4540, "unit": "nM"}, {"measurement": "EC50", "setting": "dengue virus type 2 [4]", "value": 4500, "unit": "nM"}, {"measurement": "EC50", "setting": "dengue virus type 1", "value": 4270, "unit": "nM"}, {"measurement": "CC50 at 24 h", "setting": "[5]", "value": "> 80000", "unit": "nM"}, {"measurement": "CC50 at 24 h", "setting": "[6]", "value": "> 80000", "unit": "nM"}, {"measurement": "CC50 at 24 h", "setting": "[7]", "value": "> 80000", "unit": "nM"}, {"measurement": "CC50 at 24 h", "setting": "[8]", "value": "> 80000", "unit": "nM"}]}
{"compound": "N[C@H](CCSC[C@H]1O[C@@H](n2cnc3c(NCCc4ccccc4)ncnc32)[C@H](O)[C@@H]1O)C(=O)O", "values": [{"measurement": "Ki", "setting": "[1]", "value": 150, "unit": "nM"}, {"measurement": "Ki", "setting": "[3]", "value": 770, "unit": "nM"}]}
{"compound": "CNc1ncnc2c1ncn2[C@@H]1O[C@H](CSCC[C@@H](N)C(=O)O)[C@@H](O)[C@H]1O", "values": [{"measurement": "Ki", "setting": "[1]", "value": 150, "unit": "nM"}, {"measurement": "Ki", "setting": "[3]", "value": 770, "unit": "nM"}]}
{"compound": "COc1ccc(NC(=O)Nc2ccc3c(c2)c2ccccc2n3CCc2ccccc2)c(OC)c1", "values": [{"measurement": "IC50", "setting": "[9]", "value": 23000, "unit": "nM"}, {"measurement": "inhibition", "setting": "Zika virus [10]", "value": 30, "unit": "%"}]}
{"compound": "Cc1ccnc(NS(=O)(=O)c2ccc(NC(=O)c3ccc(S(=O)(=O)N4CCc5ccccc5C4)cc3)cc2)n1", "values": [{"measurement": "EC50", "setting": "Zika virus [11]", "value": 17600, "unit": "nM"}]}
{"compound": "Cc1ccc2c(c1)c(=O)c(C(=O)c1ccccc1)cn2CC(=O)Nc1ccccc1C", "values": [{"measurement": "EC50", "setting": "Zika virus [11]", "value": 17500, "unit": "nM"}]}
{"compound": "N[C@H](CCSC[C@H]1O[C@@H](n2cnc3c(NC4CC4)ncnc32)[C@H](O)[C@@H]1O)C(=O)O", "values": [{"measurement": "Ki", "setting": "[1]", "value": 150, "unit": "nM"}, {"measurement": "Ki", "setting": "[3]", "value": 770, "unit": "nM"}]}
{"compound": "Nc1ncnc2c1ncn2[C@@H]1O[C@H](C[C@@H](N)CC[C@H](N)C(=O)O)[C@@H](O)[C@H]1O", "note": "[SINEFUNGIN]", "values": [{"measurement": "IC50", "setting": "[12]", "value": 5300, "unit": "nM"}, {"measurement": "IC50", "setting": "[13]", "value": 1180, "unit": "nM"}]}
{"compound": "O=C(Nc1ccc(I)cc1)Nc1ccc2c(c1)c1ccccc1n2Cc1ccccc1", "values": [{"measurement": "IC50", "setting": "[9]", "value": 23000, "unit": "nM"}, {"measurement": "inhibition", "setting": "Zika virus [10]", "value": 30, "unit": "%"}]}
{"compound": "N[C@H](CCSC[C@H]1O[C@@H](n2cnc3c(NCc4cccc(F)c4)ncnc32)[C@H](O)[C@@H]1O)C(=O)O", "values": [{"measurement": "Ki", "setting": "[1]", "value": 150, "unit": "nM"}, {"measurement": "Ki", "setting": "[3]", "value": 770, "unit": "nM"}]}
{"compound": "N[C@H](CCSC[C@H]1O[C@@H](n2cnc3c(NCc4cccc(Cl)c4)ncnc32)[C@H](O)[C@@H]1O)C(=O)O", "values": [{"measurement": "Ki", "setting": "[1]", "value": 170, "unit": "nM"}, {"measurement": "Ki", "setting": "[3]", "value": 820, "unit": "nM"}]}
{"compound": "Cc1cc(/C=C/c2ccc3cc(N(C)C)ccc3[n+]2C)c(C)n1-c1ccccc1", "values": [{"measurement": "inhibition", "setting": "dengue virus type 2 [14]", "value": 97.8, "unit": "%"}, {"measurement": "inhibition", "setting": "[15]", "value": 98.6, "unit": "%"}]}
{"compound": "N[C@H](CCSC[C@H]1O[C@@H](n2cnc3c(NCc4ccccc4)ncnc32)[C@H](O)[C@@H]1O)C(=O)O", "values": [{"measurement": "Ki", "setting": "[1]", "value": 150, "unit": "nM"}, {"measurement": "Ki", "setting": "[3]", "value": 770, "unit": "nM"}]}
{"compound": "N[C@H](CCSC[C@H]1O[C@@H](n2cnc3c(NCc4cccc(I)c4)ncnc32)[C@H](O)[C@@H]1O)C(=O)O", "values": [{"measurement": "Ki", "setting": "[1]", "value": 150, "unit": "nM"}, {"measurement": "Ki", "setting": "[3]", "value": 770, "unit": "nM"}]}
{"compound": "N[C@H](CCSC[C@H]1O[C@@H](n2cnc3c(NCc4cccc(Br)c4)ncnc32)[C@H](O)[C@@H]1O)C(=O)O", "values": [{"measurement": "Ki", "setting": "[1]", "value": 150, "unit": "nM"}, {"measurement": "Ki", "setting": "[3]", "value": 770, "unit": "nM"}]}
{"compound": "Cc1ccccc1CNc1ncnc2c1ncn2[C@@H]1O[C@H](CSCC[C@@H](N)C(=O)O)[C@@H](O)[C@H]1O", "values": [{"measurement": "Ki", "setting": "[1]", "value": 150, "unit": "nM"}, {"measurement": "Ki", "setting": "[3]", "value": 770, "unit": "nM"}]}
{"compound": "CCCCCCCCCCCCCCCC[N+](C)(C)CCN(Cc1ccc(OC)cc1)c1ncccn1", "values": [{"measurement": "inhibition", "setting": "dengue virus type 2 [14]", "value": 98.6, "unit": "%"}, {"measurement": "inhibition", "setting": "[15]", "value": 96, "unit": "%"}]}
{"compound": "Cc1ccc(CNc2ncnc3c2ncn3[C@@H]2O[C@H](CSCC[C@@H](N)C(=O)O)[C@@H](O)[C@H]2O)cc1", "values": [{"measurement": "Ki", "setting": "[1]", "value": 150, "unit": "nM"}, {"measurement": "Ki", "setting": "[3]", "value": 770, "unit": "nM"}]}
{"compound": "Nc1ncnc2c1ncn2[C@@H]1O[C@H](CN(CCC(N)C(=O)O)Cc2ccc(F)cc2)[C@@H](O)[C@H]1O", "note": "(stereo partly specified)", "values": [{"measurement": "Kd", "setting": "[16]", "value": 24300, "unit": "nM"}]}
{"compound": "O=C1c2cccc3cccc(c23)C(=O)N1CCc1ccc(S(=O)(=O)N2CCN(c3ccccc3)CC2)cc1", "values": [{"measurement": "EC50", "setting": "Zika virus [11]", "value": 4800, "unit": "nM"}]}
{"compound": "C[S+](CC[C@H](N)C(=O)[O-])C[C@H]1O[C@@H](n2cnc3c(N)ncnc32)[C@H](O)[C@@H]1O", "note": "(stereo partly specified) [ADEMETIONINE]", "values": [{"measurement": "Kd", "setting": "[16]", "value": 2580, "unit": "nM"}]}
{"compound": "COCCCNC(=O)c1ccc(Cn2c(=O)c3ccccc3n(CC(=O)NCCc3ccc(OC)c(OC)c3)c2=O)cc1", "values": [{"measurement": "EC50", "setting": "Zika virus [11]", "value": 12500, "unit": "nM"}]}
{"compound": "CCn1c2ccccc2c2cc(NC(=O)Nc3ccc([N+](=O)[O-])cc3C)ccc21", "values": [{"measurement": "IC50", "setting": "[9]", "value": 35000, "unit": "nM"}, {"measurement": "inhibition", "setting": "Zika virus [10]", "value": 30, "unit": "%"}, {"measurement": "EC50", "setting": "Zika virus [17]", "value": "> 3990", "unit": "nM"}, {"measurement": "IC50", "setting": "[13]", "value": 38000, "unit": "nM"}]}
{"compound": "N[C@H](CCSC[C@H]1O[C@@H](n2cnc3c(Nc4ccccc4)ncnc32)[C@H](O)[C@@H]1O)C(=O)O", "values": [{"measurement": "Ki", "setting": "[1]", "value": 150, "unit": "nM"}, {"measurement": "Ki", "setting": "[3]", "value": 770, "unit": "nM"}]}
{"compound": "Cc1cccc(CNc2ncnc3c2ncn3[C@@H]2O[C@H](CSCC[C@@H](N)C(=O)O)[C@@H](O)[C@H]2O)c1", "values": [{"measurement": "Ki", "setting": "[1]", "value": 150, "unit": "nM"}, {"measurement": "Ki", "setting": "[3]", "value": 770, "unit": "nM"}]}
{"compound": "COc1ccc(NC(=O)Nc2ccc3c(c2)c2ccccc2n3Cc2ccccc2)c(OC)c1", "values": [{"measurement": "IC50", "setting": "[9]", "value": 23000, "unit": "nM"}, {"measurement": "inhibition", "setting": "Zika virus [10]", "value": 30, "unit": "%"}]}
